Laboratory results from patent US7056679B2, “Target specific screening and its use for identifying target binders” (Antyra, Inc., priority 2001, dated 2006).

How the values were obtained:
[1] = tested on: lactate dehydrogenase (LDH); test: ELISA analysis of phage on LDH (irrelevant, non-specific target); assay type: binding; settings: peptide binding to LDH polypeptide (non-specific binding); phage ELISA units read at 405 nm
Description: (§1) For analysis of individual target binders, colonies were picked and phage prepared as described above using helper phage, M13KO7. Ninety-six-well microtiter plates were coated with 500 ng/well of specific target protein, 500 ng/well lactate dehydrogenase (LDH) irrelevant or non-specific target, 500 ng/well of positive control antibody raised against ETAG, and negative control of non-fat milk powder-PBS 2% at 4° C. overnight. Plates were then blocked with 350 microliters/well PBS containing 2% non-fat milk for 1 hr at room temperature. One hundred microliters per well of phage from isolated clones were added and plates were incubated at room temperature for 2 hr after centrifuging samples for 20 minutes at 3500 rpm at 4° C. The phage solution was then removed, and the wells were washed three times with PBS at room temperature. Antibody raised against M13 conjugated to horseradish peroxidase (Pharmacia) was diluted 1:3000 in PBS-Tween and added to each well (100 μl/well). Incubation was for 1 hr at room temperature, followed by washing with PBS-(0.5%) Tween 3 times as described. Color was developed by addition of ABTS solution (100 μl/well; Boehringer, Indianapolis, Ind.). Plates were analyzed at 405 nm. A clone was considered “positive” if the A405 of the well was ≧2-fold over background.

DGI-2 = biological target: T1, DGI-2 (Homo sapiens, UniProt Q15004); test: ELISA analysis of phage on DGI-2 polypeptide (specific binding); settings: for DGI-2 (OD): binding to DGI-2 polypeptide (specific binding), phage ELISA units read at 405 nm; for DGI-2/LDH (OD): ratio of specific binding to non-specific binding
T1 construct: encompassed the entire DGI-2 open reading frame (ORF); His-tag of vector pIVEX2.3-MCS (inferred from the vector and from the reverse primer lacking a stop codon); made in house; host or cells: cell-free in vitro translation (Rapid Translation System RTS, Roche; E. coli lysate)
T1 sequence (Q15004 1-111): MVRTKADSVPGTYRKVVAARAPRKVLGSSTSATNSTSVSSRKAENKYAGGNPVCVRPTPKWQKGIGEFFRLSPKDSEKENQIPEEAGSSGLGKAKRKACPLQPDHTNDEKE
Description: To verify that the selected target binders bound to DGI-2, Elisa assays were performed with recombinant DGI-2. DGI-2 was subcloned and expressed using conventional methods as described below.
Protein yields were satisfactory, but most of protein was found in inclusion bodies. Next, DGI-2 was expressed using an in vitro translation system (Rapid Translation System RTS 5000, Roche Diagnostics GmbH, Mannheim Germany). For this system, the DGI-2 ORF was cloned into the pIVEX2.3-MCS vector (Roche Diagnostics) using restriction sites Nde I and Hind III, which were added to DGI-2 by PCR. […] The primers used for the PCR amplification were as follows: […]
as §1

E-tag antibody = test: ELISA analysis of phage on antibody raised against ETAG (positive control); settings: peptide binding to E-tag antibody; phage ELISA units read at 405 nm
Description: as §1

Sequence | LDH (OD) [1] | DGI-2 (OD) (DGI-2) | DGI-2/LDH (OD) (DGI-2) | ETAG (OD) (E-tag antibody)
LLLPVRWRDAQPRSLLMEWI (DGI-2-20F-PP-F8; listed as Escherichia coli) | 1.1 OD | 2.0 OD | 1.9 | 7.6 OD
LPQSRWLSEAWASWVDGVVD (DGI-2-20F-4-F9; listed as Escherichia coli) | 1.0 OD | 5.6 OD | 5.9 | 19.6 OD
LSLLSVVVRSMGASAPQRQV (DGI-2-20F-3-A7; listed as Escherichia coli) | 0.9 OD | 2.1 OD | 2.4 | 7.0 OD
LTPYSLARSWLSGRPSTGAT (DGI-2-20F-3-C12; listed as Escherichia coli) | 1.0 OD | 3.2 OD | 3.1 | 15.1 OD
LVIGQRSFLSACSLFDGFCV (DGI-2-20R-4-H814; listed as Escherichia coli) | 1.1 OD | 9.5 OD | 9.0 | 13.5 OD
LVIQCSASVVACDLYWNYVGCLAAG (DGI-2-20C-3-D12; listed as Escherichia coli) | 1.0 OD | 1.1 OD | 1.1 | 3.6 OD
MGADTCMGGKMPFDQMFGAV (DGI-2-20F-PP-E10; listed as Escherichia coli) | 1.2 OD | 2.0 OD | 1.7 | 44.6 OD
MGVVLECEGGWSIPGQTCYF (DGI-2-20R-3-C7; listed as Escherichia coli) | 1.0 OD | 5.1 OD | 5.1 | 18.0 OD
MQAASTLSTYMGAIRMGYPILHWDRGGVQRVDPGLYRGRV (DGI-2-40F-3-B10; listed as Escherichia coli) | 1.0 OD | 1.3 OD | 1.4 | 4.8 OD
MSSTAWTDRILQRGIGLGPV (DGI-2-20R-4-F1212; listed as Escherichia coli) | 1.2 OD | 4.0 OD | 3.3 | 9.8 OD
PAMGHCMQVLGPVLEGRSRDQVGR (DGI-2-20R-4-G6; listed as Escherichia coli) | 1.1 OD | 1.6 OD | 1.4 | 11.5 OD
PKDGAAFKGSDFIQGGQTVMERAPALWWRDGGGQWEAPST (DGI-2-40F-3-B72; listed as Escherichia coli) | 0.7 OD | 1.0 OD | 1.3 | 10.4 OD
PVYRVAMCRISVGCSAGAWF (DGI-2-20F-PP-C12; listed as Escherichia coli) | 0.9 OD | 2.5 OD | 2.9 | 36.4 OD
QMSRVAFSPGESWRRWVEGV (DGI-2-20R-3-A2; listed as Escherichia coli) | 1.0 OD | 7.5 OD | 7.5 | 14.2 OD
QSNVWVLVGVIMQGVWYQRQHYCVYVMLLSDQVSVLLAVA (DGI-2-40F-3-B6; listed as Escherichia coli) | 0.8 OD | 0.9 OD | 1.2 | 1.8 OD

Continued, in another order:

LDH (OD) [1] | DGI-2 (OD) (DGI-2) | DGI-2/LDH (OD) (DGI-2) | Sequence | ETAG (OD) (E-tag antibody)
1.0 OD | 3.4 OD | 3.4 | LQIVRPAGMTKMPGQVGYYIG (LQIVRPAGWKMPGQVGYYIG; DGI-2-20R-3-A9; listed as Escherichia coli) | 14.3 OD
1.2 OD | 3.1 OD | 2.6 | LSHPMSPLRAASQMALTQGV (DGI-2-20R-4-H7; listed as Escherichia coli) | 14.1 OD
1.1 OD | 9.0 OD | 8.4 | LSLEGGWMWDTKGGDGGSAQ (DGI-2-20R-4-F93; listed as Escherichia coli) | 19.5 OD
0.9 OD | 1.2 OD | 1.2 | LSRIWRGVIESAREVESRGI (DGI-2-20F-3-B1; listed as Escherichia coli) | 11.4 OD
1.1 OD | 1.4 OD | 1.2 | LSVFRPGQFPHVGARGVSRT (DGI-2-20R-4-G32; listed as Escherichia coli) | 11.0 OD
1.2 OD | 1.6 OD | 1.3 | LTWGPQFGSLQVYSRHRGLP (DGI-2-20R-4-E4; listed as Escherichia coli) | 18.1 OD
0.8 OD | 1.0 OD | 1.1 | LWLPCGLLVRPAQFYFYFSPLRHFLSSSVGSLSFPLSLLV (DGI-2-40F-3-B4; listed as Escherichia coli) | 1.5 OD
1.0 OD | 8.7 OD | 8.4 | LWRRWSEGQLLGDGELRGDG (DGI-2-20R-3-B52; listed as Escherichia coli) | 15.8 OD
1.0 OD | 1.3 OD | 1.3 | MAVLPAARDFGGVVQGGVSG (DGI-2-20F-3-C2; listed as Escherichia coli) | 11.5 OD
1.0 OD | 4.9 OD | 4.8 | MFQDVACDLWHSVRCLRRDV (DGI-2-20R-3-B3; listed as Escherichia coli) | 16.1 OD
0.8 OD | 0.8 OD | 1.0 | MGQGFHYNRQPYMSHQCYAFTFSTPFLDGDRIPHGVSRGL (DGI-2-40F-3-D1; listed as Escherichia coli) | 4.1 OD
1.1 OD | 3.1 OD | 2.8 | MGSLGPFGNTNSLASGIGSVRNRPLLPLHGSP [DGI-2-40F-3-D72] | 14.0 OD
1.3 OD | 3.7 OD | 2.8 | MSTLQGPGHLFQMLRRASLG (DGI-2-20R-4-H12; listed as Escherichia coli) | 10.9 OD
1.0 OD | 2.3 OD | 2.5 | QGSAHVVRPPGVYDVPWKVGMFFHPQNWPNSWGRAYFRSG (DGI-2-40F-3-D12; listed as Escherichia coli) | 7.3 OD
1.0 OD | 7.8 OD | 7.6 | QLDCLVWGLPGLRCDRPLEQ (DGI-2-20R-3-B10; listed as Escherichia coli) | 17.0 OD
0.8 OD | 2.3 OD | 2.8 | QMIFSKGNWLAHPEGGVALGLSRESQLFRSCREFGYCMGPM [DGI-2-40F-3-C6] | 10.1 OD
